From patent publication US7115750B1, “Melanin concentrating hormone antagonist” (Takeda Pharmaceutical Company Limited, priority 1999, dated 2006)
Counter-ions that a name gives are not always drawn.

| Structure (SMILES) | melting point |
| --- | --- |
| Cl.O=C(Nc1ccc(C(=O)C2CCCNC2)cc1)c1ccc(-c2ccc(Cl)cc2)cc1 (stereo not drawn) | 222 to 225 °C (dec.) |
| Cl.O=C(Nc1ccc(C(O)C2CCCNC2)cc1)c1ccc(-c2ccc(Cl)cc2)cc1 (stereo not drawn) | 195 °C (dec.) |
| Cl.O=C(Nc1ccc(CC2CCCNC2)cc1)c1ccc(-c2ccccc2)cc1 (stereo not drawn) | 218 to 220 °C (dec.) |
| Cl.O=C(Nc1ccc(CC2CCCNC2)cc1)c1ccc(-c2ccc(F)cc2)cc1 (stereo not drawn) | 205 °C (dec.) |
| Cl.O=C(Nc1ccc(CC2CCCNC2)cc1)c1ccc(-c2ccc(Cl)cc2)cc1 (stereo not drawn) | 200 °C (dec.) |
| CN(C)CC1CCc2cc(NC(=O)c3ccc(-c4ccc(-c5ccccc5)cc4)cc3)ccc2C1.Cl (stereo not drawn) | 220 °C (dec.) |
| CN(C)CC1CCc2cc(NS(=O)(=O)c3ccc(-c4ccccc4)cc3)ccc2C1.Cl (stereo not drawn) | 168 to 170 °C |
| CN(C(=O)c1ccc(-c2ccc(F)cc2)cc1)c1ccc2c(c1)CCC(CN1CCCC1)=C2 (as salt: hydrochloride) [Example 226, 4′-Fluoro-N-methyl-N-[6-(1-pyrrolidinylmethyl)-7,8-dihydro-2-naphthalenyl][1,1′-biphenyl]-4-carboxamide Hydrochloride] | 201 to 203 °C |
| CN(C)CC1=Cc2ccc(NC(=O)c3ccc(-c4ccccc4)cc3)cc2C1 (hydrate or solvate) [Example 244, N-[2-[(Dimethylamino)methyl]-1H-inden-6-yl][1,1′-biphenyl]-4-carboxamide] | 187 to 189 °C |
| CN(C)CC1CCc2cc(NC(=O)c3ccc(C(=O)c4ccccc4)cc3)ccc2C1 (stereo not drawn) [Example 2, 4-Benzoyl-N-[2-(N,N-dimethylamino)methyl-6-tetralinyl]benzamide] | 193 to 196 °C |
| CN(C)CC1CCc2cc(NC(=O)c3ccc(N4C(=O)c5ccccc5C4=O)cc3)ccc2C1 (stereo not drawn) [Example 3, N-[2-(N,N-Dimethylamino)methyl-6-tetralinyl]-4-(1,3-dioxo-1,3-dihydro-2H-isoindol-2-yl) benzamide] | 235 to 240 °C |
| CN(C)CC1CCc2cc(NC(=O)c3ccc(OCc4ccccc4)cc3)ccc2C1 (stereo not drawn) [Example 5, 4-(Benzyloxy)-N-[2-(N,N-dimethylamino)methyl-6-tetralinyl]benzamide] | 135 to 136 °C |
| CN(C)CC1CCc2cc(NC(=O)c3ccc4c(c3)C(=O)c3ccccc3-4)ccc2C1 (stereo not drawn) [Example 6, N-[2-(N,N-Dimethylamino)methyl-6-tetralinyl]-9-oxo-9H-fluoren-2-carboxamide] | 224 to 226 °C |
| CN(C)CC1CCc2cc(NC(=O)c3ccc4c(c3)S(=O)(=O)c3ccccc3C4=O)ccc2C1 (stereo not drawn) [Example 7, N-[2-(N,N-Dimethylamino)methyl-6-tetralinyl]-9,10,10-trioxo-9,10-dihydro-101^6-thioxanthene-3-carboxamide] | 222 to 223 °C (dec.) |
| CN(C)CC1CCc2cc(NC(=O)c3ccc(NC(=O)Nc4ccccc4)cc3)ccc2C1 (stereo not drawn) [Example 8, (4-Anilinocarbonyl)amino-N-[2-(N,N-dimethylamino)methyl-6-tetralinyl]benzamide] | 216 to 217 °C (dec.) |
| CN(C)CC1CCc2cc(NC(=O)c3ccc(Oc4ccccc4)cc3)ccc2C1 (stereo not drawn) [Example 9, N-[2-(N,N-Dimethylamino)methyl-6-tetralinyl]-4-phenoxy benzamide] | 137 to 139 °C |
| CN(C)CC1CCc2cc(NC(=O)c3ccc(C(=O)Nc4ccccc4)cc3)ccc2C1 (stereo not drawn) [Example 10, N^1-[2-(N,N-Dimethylamino)methyl-6-tetralinyl]-N^4-phenyl terephthalamide] | 238 to 240 °C (dec.) |
| CCc1ccc(-c2ccc(C(=O)Nc3ccc4c(c3)CCC(CN(C)C)C4)cc2)cc1 (stereo not drawn) [Example 11, (4′-Ethylbiphenyl-4-yl)-N-[2-(N,N-dimethylamino)methyl-6-tetralinyl]carboxamide] | 137 to 138 °C |
| CN(C)CC1CCc2cc(NC(=O)c3ccc(-c4ccc(Cl)cc4)cc3)ccc2C1 (stereo not drawn) [Example 12, (4′-Chlorobiphenyl-4-yl)-N-[2-(N,N-dimethylamino)methyl-6-tetralinyl]carboxamide] | 187 to 189 °C |
| CN(C)CC1CCc2cc(NC(=O)c3ccc(-c4ccc5c(c4)OCO5)cc3)ccc2C1 (stereo not drawn) [Example 14] | 174 to 176 °C |

| Structure (SMILES) | melting point |
| --- | --- |
| CN(C)CC1CCc2cc(NC(=O)c3ccc(-c4ccc(Cl)c(Cl)c4)cc3)ccc2C1 (stereo not drawn) [Example 16, 3′,4′-Dichloro-N-[6-[(N,N-dimethylamino)methyl]-5,6,7,8-tetrahydro-2-naphthalenyl][1,1′-biphenyl]-4-carboxamide] | 143 to 145 °C |
| CN(C)CC1CCc2cc(NC(=O)c3ccc(-c4ccc([O-])cc4)cc3)ccc2C1.[Na+] (stereo not drawn) [Example 19, Sodium salt of N-[6-[(N,N-dimethylamino)methyl]-5,6,7,8-tetrahydro-2-naphthalenyl]-4′-oxy[1,1′-biphenyl]-4-carboxamide] | 246 to 248 °C |
| CN(C)CC1CCc2cc(NC(=O)c3ccc(-c4ccc(C=O)cc4)cc3)ccc2C1 (stereo not drawn) [Example 20, N-[6-[(N,N-Dimethylamino)methyl]-5,6,7,8-tetrahydro-2-naphthalenyl]-4′-formyl[1,1′-biphenyl]-4-carboxamide] | 130 to 132 °C |
| CN(C)CC1CCc2cc(NC(=O)c3ccc(-c4ccc(CO)cc4)cc3)ccc2C1 (stereo not drawn) [Example 21, N-[6-[(N,N-Dimethylamino)methyl]-5,6,7,8-tetrahydro-2-naphthalenyl]-4′-(hydroxymethyl)[1,1′-biphenyl]-4-carboxamide] | 138 to 139 °C |
| CCCc1ccc(-c2ccc(C(=O)Nc3ccc4c(c3)CCC(CN(C)C)C4)cc2)cc1 (stereo not drawn) [Example 22, N-[6-[(N,N-Dimethylamino)methyl]-5,6,7,8-tetrahydro-2-naphthalenyl]-4′-propyl[1,1′-biphenyl]-4-carboxamide] | 186 to 188 °C |
| Cc1cc(Br)ccc1C(=O)Nc1ccc2c(c1)CCC(CN(C)C)C2 (stereo not drawn) [Example 24, 4-Bromo-N-[6-[(N,N-dimethylamino)methyl]-5,6,7,8-tetrahydro-2-naphthalenyl]-2-methylbenzamide] | 140 to 142 °C |
| Cc1cc(C(=O)Nc2ccc3c(c2)CCC(CN(C)C)C3)ccc1Br (stereo not drawn) [Example 25, 4-Bromo-N-[6[(N,N-dimethylamino)methyl]-5,6,7,8-tetrahydro-2-naphthalenyl]-3-methylbenzamide] | 154 to 155 °C |
| CN(C)CC1CCc2cc(NC(=O)c3ccc(-c4ccc(Cl)cc4)cc3Cl)ccc2C1 (stereo not drawn) [Example 26, 3,4′-Dichloro-N-[6-[(N,N-dimethylamino)methyl]-5,6,7,8-tetrahydro-2-naphthalenyl][1,1′-biphenyl]-4-carboxamide] | 177 to 179 °C |
| Cc1cc(-c2ccc(Cl)cc2)ccc1C(=O)Nc1ccc2c(c1)CCC(CN(C)C)C2 (stereo not drawn) [Example 27, 4′-Chloro-N-[6-[(N,N-dimethylamino)methyl]-5,6,7,8-tetrahydro-2-naphthalenyl]-3-methyl[1,1′-biphenyl]-4-carboxamide] | 163 to 165 °C |
| Cc1cc(C(=O)Nc2ccc3c(c2)CCC(CN(C)C)C3)ccc1-c1ccc(Cl)cc1 (stereo not drawn) [Example 28, 4′-Chloro-N-[6-[(N,N-dimethylamino)methyl]-5,6,7,8-tetrahydro-2-naphthalenyl]-2-methyl[1,1′-biphenyl]-4-carboxamide] | 193 to 195 °C |
| CN(C)CC1CCc2cc(NC(=O)c3ccc(-c4ccc(C(F)(F)F)cc4)cc3)ccc2C1 (stereo not drawn) [Example 29, N-[6-[(N,N-Dimethylamino)methyl]-5,6,7,8-tetrahydro-2-naphthalenyl]-4′-(trifluoromethyl)[1,1-biphenyl]-4-carboxamide] | 205 to 206 °C |
| CN(C)CC1CCc2cc(NC(=O)c3ccc(-c4cccnc4)cc3)ccc2C1 (stereo not drawn) [Example 30, N-[6-[(N,N-Dimethylamino)methyl]-5,6,7,8-tetrahydro-2-naphthalenyl]-4-(3-pyridinyl)benzamide] | 177 to 178 °C |
| CN(C)CC1CCc2cc(NC(=O)c3ccc(-c4ccc(NC(=O)C(F)(F)F)cc4)cc3)ccc2C1 (stereo not drawn) [Example 31, N-[6-[(N,N-Dimethylamino)methyl]-5,6,7,8-tetrahydro-2-naphthalenyl]-4′-[(trifluoroacetyl)amino][1,1′-biphenyl]-4-carboxamide] | 235 to 237 °C |
| CN(C)CC1CCc2cc(NC(=O)c3ccc(-c4ccc(C5=NC(C)(C)CO5)cc4)cc3)ccc2C1 (stereo not drawn) [Example 32, N-[6-[(N,N-Dimethylamino)methyl]-5,6,7,8-tetrahydro-2-naphthalenyl]-4′-(4,4-dimethyl-4,5-dihydro-1,3-oxazole 2-yl)[1,1′-biphenyl]-4-carboxamide] | 185 to 187 °C |
| CN(C)CC1CCc2cc(NC(=O)c3ccc(-c4ccc(N)cc4)cc3)ccc2C1 (stereo not drawn) [Example 33, 4′-Amino-N-[6-[(N,N-dimethylamino)methyl]-5,6,7,8-tetrahydro-2-naphthalenyl][1,1′-biphenyl]-4-carboxamide] | 148 to 150 °C |
| CN(C)CC1CCc2cc(NC(=O)c3ccc(-c4cccs4)cc3)ccc2C1 (stereo not drawn) [Example 34, N-[6-[(N,N-Dimethylamino)methyl]-5,6,7,8-tetrahydro-2-naphthalenyl]-4-(2-thienyl) benzamide] | 165 to 166 °C |
| CCOC(=O)c1ccc(-c2ccc(C(=O)Nc3ccc4c(c3)CCC(CN(C)C)C4)cc2)cc1 (stereo not drawn) [Example 35, Ethyl 4′-[[[6-[(N,N-dimethylamino)methyl]-5,6,7,8-tetrahydro-2-naphthalenyl]amino]carbonyl][1,1′-biphenyl]-4-carboxylate] | 156 to 158 °C |
| CSc1ccc(-c2ccc(C(=O)Nc3ccc4c(c3)CCC(CN(C)C)C4)cc2)cc1 (stereo not drawn) [Example 36, N-[6-[(N,N-Dimethylamino)methyl]-5,6,7,8-tetrahydro-2-naphthalenyl]-4′-(methylsulfanyl)[1,1′-biphenyl]-4-carboxamide] | 178 to 180 °C |
| CN(C)CC1CCc2cc(NC(=O)c3ccc(-c4ccc(N(C)C)cc4)cc3)ccc2C1 (stereo not drawn) [Example 37, 4′-(N,N-Dimethylamino)-N-[6-[(N,N-dimethylamino)methyl]-5,6,7,8-tetrahydro-2-naphthalenyl][1,1′-biphenyl)-4-carboxamide] | 212 to 213 °C |
